Measurements: US5166374A, “Bile acid derivatives, processes for the preparation thereof and pharmaceutical compositions containing them” (Giuliani S.p.A., priority 1989, dated 1992)
Values after ≈ are worked out from the molar mass of the structure shown. “Also recorded” adds a separate entry of the source. Where two headings read alike, the source gives them in different places.

Assays:
[1] = solubility in water; assay type: physicochemical; settings: for solubility: water
[2] = intestinal absorption, biliary recovery and metabolism after intraduodenal administration; assay type: in vivo
[3] = tested on: bile flow and biliary secretion; experiment: effect on bile flow and biliary lipid secretion when administered i.v. to rat; assay type: in vivo; settings: for SMAB (mean maximum biliary secretion) / SMFL (mean maximum biliary lipid secretion) / SMVo (mean maximum bile flow) / SMxol (mean maximum biliary lipid secretion): rat, i.v., Table II
Text: Effect of 24-ISOP on bile flow and biliary
SVo = mean maximum bile flow.
SM = mean maximum biliary lipid secretion.

[4] = critical micellar pH (CMpH); assay type: physicochemical
Description: (§1) were evaluated according to conventional methods. Critical micellar concentration.

[5] = tested on: bile flow; experiment: choleretic effect after i.v. or i.d. administration; assay type: in vivo
[6] = acidity constant (pKa); assay type: physicochemical
Description: as §1

[7] = liver uptake, biliary secretion and metabolism after intravenous administration; assay type: in vivo
[8] = critical micellar concentration (CMC), detergency; assay type: physicochemical
Description: -critical micellar concentration (CMC) or "detergency",
as §1
comparison with UDCA, GUDCA and TUDCA

[9] = lipophilicity (K' from retention times on C18 HPLC); assay type: physicochemical; settings: for rK' C-18 (relative values): Table III
Text: K' = calculated from retention times (t) on C18 HPLC according to
where to = time of unretained solvent, under the following

[10] = Table I, calculated from retention times on C18 HPLC, CH3OH/KH2PO4 0.01 M 130/70 v/v, pH = 7, read-out: K' (converted)

Row | SMILES | SMAB (mean maximum biliary secretion) [3] [µmol/min/kg] | SMFL (mean maximum biliary lipid secretion) [3] [µmol/min/kg] | SMVo (mean maximum bile flow) [3] [µL/min/kg] | SMxol (mean maximum biliary lipid secretion) [3] [µmol/min/kg] | CMC ([8]; Table I) [mM] | CMC ([8]; Table III) [mM] | rK' C-18 (relative values) [9] | solubility (in words) [1] | chromatographic logD [9, 10] | further results
1 | C[C@H](CCC(=O)CCC(=O)O)[C@H]1CC[C@H]2[C@@H]3[C@@H](O)C[C@@H]4C[C@H](O)CC[C@]4(C)[C@H]3CC[C@]12C [Example 24-ISOP, 3α, 7β-dihydroxy-24-oxo-5β-cholan-27-oic acid] | 2.62 | 0.21 | 87 | 0.020 | 9 |  |  |  |  | solubility ([1]; Solubility): 20 µM (≈ 8.97 µg/mL); metabolites ([2]; in vivo): no major metabolites are present; recovery in bile ([2]; intraduodenal): significantly higher than that of glycoursodeoxycholic and similar to UDCA and TUDCA; effect on bile flow (in words) ([3]; intravenous): great effect on bile flow, higher than that of UDCA and its conjugated forms; transport and secretion of cholesterol and phospholipids (in words) ([3]; intravenous): no significative differences; critical micellar pH (in words) [4]: low critical micellar pH; also recorded: soluble when present in micellar form at a pH lower than UDCA (low CMpH); choleretic effect [5]: high choleretic effect, higher than that of UDCA; pKa ([6]; pKa value): 4.2; disappearance from bile ([7]; in vivo): disappears from bile with a kinetic similar to conjugate forms of UDCA and faster than UDCA; kinetic of the biliary secretion ([7]; in vivo, iv): very fast in comparison with UDCA and more similar to tauroursodeoxycholic acid; metabolites / conjugation ([7]; intravenous): no significant metabolites are present; recovery in bile ([7]; intravenous): completely recovered in bile with a rapid kinetic; chromatographic logD ([9]; c18 hplc, ch3oh/kh2po4, pH 7): 0.326
2 | C[C@H](CCC(=O)CCC(=O)O)[C@H]1CC[C@H]2[C@@H]3[C@@H](O)C[C@@H]4C[C@H](O)CC[C@]4(C)[C@H]3CC[C@]12C [Example 24-PUDCA] |  |  |  |  |  | 9 | 0,44 |  |  | solubility ([1]; water solubility): 13 µM (≈ 5.83 µg/mL); pKa ([6]; pKa): 3.9
3 | C[C@H](CCC(=O)O)[C@H]1CC[C@H]2[C@@H]3[C@@H](O)C[C@@H]4C[C@H](O)CC[C@]4(C)[C@H]3C[C@H](O)[C@]12C [UCA, ursocholic] |  |  |  |  |  | 60 |  |  |  | 
4 | C[C@H](CCC(=O)NCC(=O)O)[C@H]1CC[C@H]2[C@@H]3[C@@H](O)C[C@@H]4C[C@H](O)CC[C@]4(C)[C@H]3CC[C@]12C [GUDCA, glycoursodeoxycholic acid] | 2.10 | 0.39 | 40 | 0.028 | 12 |  |  | low solubility at low pH | 0.0253 | solubility ([1]; Table I, read-out: Solubility): 3 µM (≈ 1.35 µg/mL)
5 | C[C@H](CCC(=O)NCCS(=O)(=O)O)[C@H]1CC[C@H]2[C@@H]3[C@@H](O)C[C@@H]4C[C@H](O)CC[C@]4(C)[C@H]3CC[C@]12C [TUDCA, tauroursodeoxycholic acid] | 3.40 | 0.18 | 36 | 0.014 | 8 |  |  |  | -0.00877 | 
6 | C[C@H](CCC(=O)CCC(=O)O)[C@H]1CC[C@H]2[C@@H]3[C@@H](O)C[C@@H]4C[C@H](O)CC[C@]4(C)[C@H]3C[C@H](O)[C@]12C [Example 24-PUCA, 3α, 7β, 12α-Trihydroxy-24-oxo-5β-cholan-27-oic acid] |  |  |  |  |  | 28 | 0,20 | very soluble also in protonated form |  | water solubility relative to UDCA and 24-PUDCA [1]: about 100 times; solubility ([1]; water solubility): 1800 µM (≈ 836 µg/mL); critical micellar pH (in words) [4]: low CMpH value; pKa (in words) [6]: lower to than that of the natural analogues UCA and UDCA and similar to that of 24-PUDCA; pKa ([6]; pKa): 3.85; CMC / detergency (in words) [8]: mild detergency; lipophilicity (in words) [9]: intermediate between UCA and UDCA
7 | C[C@H](CCC(=O)O)[C@H]1CC[C@H]2[C@@H]3[C@@H](O)C[C@@H]4C[C@H](O)CC[C@]4(C)[C@H]3CC[C@]12C [UDCA, ursodeoxycholic, reference compound] | 3.02 | 0.227 | 60 | 0.022 | 19 | 19 | 0,4 | low solubility at low pH | 0.563 | solubility ([1]; Table III, read-out: water solubility): 19 µM (≈ 7.46 µg/mL); solubility ([1]; Table I, read-out: Solubility): 9 µM (≈ 3.53 µg/mL); pKa ([6]; Acidity constant, read-out: pKa value): 6; pKa ([6]; Table I): 5.06; pKa ([6]; Table III): 5; metabolites / conjugation ([7]; in vivo, iv): completely transformed into its conjugated form, tauroursodexycholic acid and to less extent into glycoursodeoxycholic acid
